Results: publication PMC9743148 (Annals of oncology : official journal of the European …, 2020)

Assay: clinical
Conditions: human, plasma, oral; for AUC(0-inf): AUC0–inf; for AUC(0-t): AUC0–last
[1] = 4 mg, 4 mg q.d., cycle 1 Day 1, mean
[2] = 4 mg, 4 mg q.d., cycle 1 Day 21, mean
[3] = 8 mg, 8 mg q.d., cycle 1 Day 1, mean
[4] = 8 mg, 8 mg t.i.w., cycle 1 Day 1, mean
[5] = 8 mg, 8 mg q.d., cycle 1 Day 21, mean
[6] = 8 mg, 8 mg t.i.w., cycle 1 Last Wednesday, mean
[7] = 16 mg, 16 mg q.d., cycle 1 Day 1, mean
[8] = 16 mg, 16 mg t.i.w., cycle 1 Day 1, mean
[9] = 16 mg, 16 mg q.d., cycle 1 Day 21, mean
[10] = 20 mg, 20 mg q.d., cycle 1 Day 1, mean
[11] = 20 mg, 20 mg q.d., cycle 1 Day 21, mean
[12] = 24 mg, 24 mg q.d., cycle 1 Day 1, mean
[13] = 24 mg, 24 mg t.i.w., cycle 1 Day 1, mean
[14] = 24 mg, 24 mg q.d., cycle 1 Day 21, mean
[15] = 36 mg, 36 mg t.i.w., cycle 1 Day 1, mean
[16] = 56 mg, 56 mg t.i.w., cycle 1 Day 1, mean
[17] = 80 mg, 80 mg t.i.w., cycle 1 Day 1, mean
[18] = 120 mg, 120 mg t.i.w., cycle 1 Day 1, mean
[19] = 160 mg, 160 mg t.i.w., cycle 1 Day 1, mean

SMILES: C=CC(=O)N1CC[C@H](n2nc(C#Cc3cc(OC)cc(OC)c3)c3c(N)ncnc32)C1 [futibatinib]
- AUC(0-inf) [1]: 117 ng·h/mL
- AUC(0-t) [1]: 114 ng·h/mL
- AUC(0-t) [2]: 134 ng·h/mL
- Cmax [1]: 33.1 ng/mL
- Cmax [2]: 52.5 ng/mL
- half-life (4 mg, T1/2, 4 mg q.d., cycle 1 Day 1, mean): 1.75 h
- half-life (4 mg, T1/2, 4 mg q.d., cycle 1 Day 21, mean): 1.63 h
- Tmax (4 mg, 4 mg q.d., cycle 1 Day 1, median): 0.96 h
- Tmax (4 mg, 4 mg q.d., cycle 1 Day 21, median): 1.08 h
- AUC(0-inf) [3]: 524 ng·h/mL
- AUC(0-inf) [4]: 315 ng·h/mL
- AUC(0-t) [3]: 666 ng·h/mL
- AUC(0-t) [5]: 550 ng·h/mL
- AUC(0-t) [4]: 304 ng·h/mL
- AUC(0-t) [6]: 472 ng·h/mL
- Cmax [3]: 169 ng/mL
- Cmax [5]: 98.2 ng/mL
- Cmax [4]: 85.5 ng/mL
- Cmax [6]: 106 ng/mL
- half-life (8 mg, T1/2, 8 mg q.d., cycle 1 Day 1, mean): 2.26 h
- half-life (8 mg, T1/2, 8 mg q.d., cycle 1 Day 21, mean): 2.75 h
- half-life (8 mg, T1/2, 8 mg t.i.w., cycle 1 Day 1, mean): 2.08 h
- half-life (8 mg, T1/2, 8 mg t.i.w., cycle 1 Last Wednesday, mean): 2.01 h
- Tmax (8 mg, 8 mg q.d., cycle 1 Day 1, median): 2 h
- Tmax (8 mg, 8 mg q.d., cycle 1 Day 21, median): 2 h
- Tmax (8 mg, 8 mg t.i.w., cycle 1 Day 1, median): 1.04 h
- AUC(0-inf) [7]: 549 ng·h/mL
- AUC(0-inf) [8]: 744 ng·h/mL
- AUC(0-t) [7]: 536 ng·h/mL
- AUC(0-t) [9]: 737 ng·h/mL
- AUC(0-t) [8]: 736 ng·h/mL
- Cmax [7]: 148 ng/mL
- Cmax [9]: 172 ng/mL
- Cmax [8]: 207 ng/mL
- Cmax (16 mg, 16 mg t.i.w., cycle 1 Last Wednesday, mean): 213 ng/mL
- half-life (16 mg, T1/2, 16 mg q.d., cycle 1 Day 1, mean): 2.73 h
- half-life (16 mg, T1/2, 16 mg q.d., cycle 1 Day 21, mean): 2.53 h
- half-life (16 mg, T1/2, 16 mg t.i.w., cycle 1 Day 1, mean): 2.11 h
- half-life (16 mg, T1/2, 16 mg t.i.w., cycle 1 Last Wednesday, mean): 2.75 h
- Tmax (16 mg, 16 mg q.d., cycle 1 Day 1, median): 2 h
- Tmax (16 mg, 16 mg q.d., cycle 1 Day 21, median): 2.07 h
- Tmax (16 mg, 16 mg t.i.w., cycle 1 Day 1, median): 1 h
- Tmax (16 mg, 16 mg t.i.w., cycle 1 Last Wednesday, median): 1 h
- AUC(0-inf) [10]: 1300 ng·h/mL
- AUC(0-t) [10]: 1190 ng·h/mL
- AUC(0-t) [11]: 1180 ng·h/mL
- Cmax [10]: 257 ng/mL
- Cmax [11]: 171 ng/mL
- half-life (20 mg, T1/2, 20 mg q.d., cycle 1 Day 1, mean): ~3 h
- half-life (20 mg, T1/2, 20 mg q.d., cycle 1 Day 21, mean): ~3 h
- AUC(0-inf) [12]: 1270 ng·h/mL
- AUC(0-inf) [13]: 2200 ng·h/mL
- AUC(0-t) [12]: 1220 ng·h/mL
- AUC(0-t) [14]: 1420 ng·h/mL
- AUC(0-t) [13]: 1790 ng·h/mL
- Cmax [12]: 246 ng/mL
- Cmax [14]: 194 ng/mL
- Cmax [13]: 258 ng/mL
- Cmax (24 mg, 24 mg t.i.w., cycle 1 Last Wednesday, mean): 361 ng/mL
- half-life (24 mg, T1/2, 24 mg q.d., cycle 1 Day 1, mean): 3.13 h
- half-life (24 mg, T1/2, 24 mg q.d., cycle 1 Day 21, mean): 3.12 h
- half-life (24 mg, T1/2, 24 mg t.i.w., cycle 1 Day 1, mean): 3.52 h
- half-life (24 mg, T1/2, 24 mg t.i.w., cycle 1 Last Wednesday, mean): 5.99 h
- Tmax (24 mg, 24 mg q.d., cycle 1 Day 1, median): 1.98 h
- Tmax (24 mg, 24 mg q.d., cycle 1 Day 21, median): 2 h
- Tmax (24 mg, 24 mg t.i.w., cycle 1 Day 1, median): 3 h
- Tmax (24 mg, 24 mg t.i.w., cycle 1 Last Wednesday, median): 1.05 h
- AUC(0-inf) [15]: 2680 ng·h/mL
- AUC(0-t) [15]: 2670 ng·h/mL
- Cmax [15]: 556 ng/mL
- Cmax (36 mg, 36 mg t.i.w., cycle 1 Last Wednesday, mean): 736 ng/mL
- half-life (36 mg, T1/2, 36 mg t.i.w., cycle 1 Day 1, mean): 4.84 h
- half-life (36 mg, T1/2, 36 mg t.i.w., cycle 1 Last Wednesday, mean): 6.57 h
- Tmax (36 mg, 36 mg t.i.w., cycle 1 Day 1, median): 2 h
- Tmax (36 mg, 36 mg t.i.w., cycle 1 Last Wednesday, median): 2.56 h
- AUC(0-inf) [16]: 3300 ng·h/mL
- AUC(0-t) [16]: 3290 ng·h/mL
- Cmax [16]: 695 ng/mL
- Cmax (56 mg, 56 mg t.i.w., cycle 1 Last Wednesday, mean): 930 ng/mL
- half-life (56 mg, T1/2, 56 mg t.i.w., cycle 1 Day 1, mean): 5.97 h
- half-life (56 mg, T1/2, 56 mg t.i.w., cycle 1 Last Wednesday, mean): 6.24 h
- Tmax (56 mg, 56 mg t.i.w., cycle 1 Day 1, median): 3.08 h
- Tmax (56 mg, 56 mg t.i.w., cycle 1 Last Wednesday, median): 2 h
- AUC(0-inf) [17]: 9560 ng·h/mL
- AUC(0-t) [17]: 7470 ng·h/mL
- Cmax [17]: 964 ng/mL
- Cmax (80 mg, 80 mg t.i.w., cycle 1 Last Wednesday, mean): 757 ng/mL
- half-life (80 mg, T1/2, 80 mg t.i.w., cycle 1 Day 1, mean): 4.77 h
- half-life (80 mg, T1/2, 80 mg t.i.w., cycle 1 Last Wednesday, mean): 5.28 h
- Tmax (80 mg, 80 mg t.i.w., cycle 1 Last Wednesday, median): 3 h
- AUC(0-inf) [18]: 5310 ng·h/mL
- AUC(0-t) [18]: 6640 ng·h/mL
- Cmax [18]: 713 ng/mL
- Cmax (120 mg, 120 mg t.i.w., cycle 1 Last Wednesday, mean): 910 ng/mL
- half-life (120 mg, T1/2, 120 mg t.i.w., cycle 1 Day 1, mean): 6.18 h
- half-life (120 mg, T1/2, 120 mg t.i.w., cycle 1 Last Wednesday, mean): 10.6 h
- Tmax (120 mg, 120 mg t.i.w., cycle 1 Day 1, median): 3.04 h
- Tmax (120 mg, 120 mg t.i.w., cycle 1 Last Wednesday, median): 3.17 h
- AUC(0-t) [19]: 7980 ng·h/mL
- Cmax [19]: 819 ng/mL
- Cmax (160 mg, 160 mg t.i.w., cycle 1 Last Wednesday, mean): 863 ng/mL
- half-life (160 mg, T1/2, 160 mg t.i.w., cycle 1 Day 1, mean): 8.75 h
- half-life (160 mg, T1/2, 160 mg t.i.w., cycle 1 Last Wednesday, mean): 3.99 h
- Tmax (160 mg, 160 mg t.i.w., cycle 1 Day 1, median): 2.52 h
- Tmax (160 mg, 160 mg t.i.w., cycle 1 Last Wednesday, median): 5.57 h
- Cmax (200 mg, 200 mg t.i.w., cycle 1 Day 1, mean): 1290 ng/mL
- Cmax (200 mg, 200 mg t.i.w., cycle 1 Last Wednesday, n 1): 845 ng/mL
- half-life (200 mg, T1/2, 200 mg t.i.w., cycle 1 Day 1, mean): 9.55 h
- Tmax (200 mg, 200 mg t.i.w., cycle 1 Day 1, median): 2 h
